Data set [1] concerns the target T1, CYP2C9 (Homo sapiens, UniProt P11712). The settings on record: DDAM 10 μmol/L, Fig. S6.
The target of data set [2] is T1, CYP2C9. In kind it is biochemical. The settings on record: for Concentration-dependent inhibitory effect toward CYP2C9: 0.1, 0.5, 1, 10 and 20 μmol/L, DDAM, Fig. 4B; for Modulation of CYP2C9 activity in visual high-throughput screen: clinical drugs 10 μmol/L, DDAM 10 μmol/L, HLM, 96-well microplate.
Data set [3] deals with CYP2J2 in HeLa and HepG2 cells. Nature of the data set: Confocal fluorescence imaging of CYP2J2 activity by MXMB in living cells. In kind it is cell-based, human. As to conditions: Fig. S13.

The structures appear in SMILES notation.

T1 sequence (P11712 whole entry): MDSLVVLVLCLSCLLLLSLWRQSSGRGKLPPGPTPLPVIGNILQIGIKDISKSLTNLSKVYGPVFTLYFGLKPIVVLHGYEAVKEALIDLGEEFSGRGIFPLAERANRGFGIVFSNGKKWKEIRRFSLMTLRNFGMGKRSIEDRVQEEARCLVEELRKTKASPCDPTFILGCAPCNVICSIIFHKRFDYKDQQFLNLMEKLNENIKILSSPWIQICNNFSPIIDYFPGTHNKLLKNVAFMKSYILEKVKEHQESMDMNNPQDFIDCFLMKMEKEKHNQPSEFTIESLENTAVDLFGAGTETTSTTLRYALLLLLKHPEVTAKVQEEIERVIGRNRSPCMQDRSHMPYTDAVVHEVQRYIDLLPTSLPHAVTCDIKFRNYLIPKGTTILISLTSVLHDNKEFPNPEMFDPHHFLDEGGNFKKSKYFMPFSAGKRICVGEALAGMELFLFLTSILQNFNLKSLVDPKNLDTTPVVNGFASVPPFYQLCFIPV

As to `Nc1ccc(S(=O)(=O)Nc2ccnn2-c2ccccc2)cc1` [sulfaphenazole], the “Effect on demethylation of DDAM” value at CYP2C9 [1] is given as “inhibited”. On CYP2C9 [2], the “Concentration-dependent inhibitory effect toward CYP2C9” value is on record as “significant inhibitory effect” and the “Modulation of CYP2C9 activity in visual high-throughput screen” value (“Modulation of CYP2C9 activity” for short) was “strong inhibitors”. With `Cc1c(OCC(F)(F)F)ccnc1C[S+]([O-])c1nc2ccccc2[nH]1` (stereo not shown) [lansoprazole], the “Modulation of CYP2C9 activity” value at CYP2C9 [2] was “activators”. As to `O=C(c1ccc(OCCN2CCCCC2)cc1)c1c(-c2ccc(O)cc2)sc2cc(O)ccc12` [raloxifene], on CYP2C9 [2], the “Concentration-dependent inhibitory effect toward CYP2C9” value is “significant inhibitory effect” and the “Modulation of CYP2C9 activity” value was “strong inhibitors”.

Turning to `COc1ccc2[nH]c([S+]([O-])Cc3ncc(C)c(OC)c3C)nc2c1` (stereo not shown) [omeprazole], the “Modulation of CYP2C9 activity” value on CYP2C9 [2] is “activators”. As to `COC(=O)Nc1nc2ccc(C(=O)c3ccccc3)cc2[nH]1` [mebendazole], on CYP2C9 [2], the “Modulation of CYP2C9 activity” value was “activators”. With `Clc1ccc(COC(Cn2ccnc2)c2ccc(Cl)cc2Cl)c(Cl)c1` (stereo not shown) [miconazole], on CYP2C9 [2], the “Concentration-dependent inhibitory effect toward CYP2C9” value is on record as “significant inhibitory effect” and the “Modulation of CYP2C9 activity” value is “strong inhibitors”. Turning to `C#C[C@]1(O)CC[C@H]2[C@@H]3CCC4=Cc5oncc5C[C@]4(C)[C@H]3CC[C@@]21C` [danazol], the “Effect of pre-treatment on intracellular fluorescence of MXMB” value in data set [3] was “remarkable suppression of intracellular fluorescence”. `NCCc1ccc(O)c(O)c1` [dopamine]: at CYP2C9 [2], the “Modulation of CYP2C9 activity” value was “activators”. In the case of `C[C@]12CC[C@@H]3c4ccc(O)cc4CC[C@H]3[C@@H]1CC[C@@H]2O` [estradiol], the “Modulation of CYP2C9 activity” value at CYP2C9 [2] is recorded as “activators”. For the compound `COc1ccnc(C[S+]([O-])c2nc3ccc(OC(F)F)cc3[nH]2)c1OC` (stereo not shown) [pantoprazole], the “Modulation of CYP2C9 activity” value at CYP2C9 [2] was “activators”. The same measure, in the same setting: next, `Nc1ccc(S(=O)(=O)c2ccc(N)cc2)cc1` [dapsone]: “activators”.

Take `CCCCCCCCCCCc1cc(=O)c2ccccc2n1C` [1-methyl-2-undecyl-4(1H) quinolone]: the “Inhibitor of CYP2C9 identified from E. rutaecarpa extract” value on CYP2C9 [2] (DDAM fluorescence assay, pre-HPLC fractions) is listed as “novel inhibitor”.

These data come from publication PMC9279627 (Acta Pharmaceutica Sinica. B, 2021).
